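Results reflect a 48-hour exposure of cells in 96-well plates to compound at five concentrations. GI50 is the concentration that inhibits growth by half. TGI: concentration producing complete growth inhibition.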
How the values were obtained:
Assay in all cases: NCI anticancer screen, dose series, 48 h
A549 NSCLC = tested on: A549 NSCLC
MDA-MB-435 = tested on: MDA-MB-435
NCI-H226 lung = tested on: NCI-H226 lung
NCI-H23 lung = tested on: NCI-H23 lung
PC-3 prostate = tested on: PC-3 prostate
SF-539 CNS = tested on: SF-539 CNS
SK-OV-3 ovarian = tested on: SK-OV-3 ovarian
SN12C renal = tested on: SN12C renal
DLD-1 colon = tested on: DLD-1 colon
DMS 114 small cell lung = tested on: DMS 114 small cell lung
SNB-78 CNS = tested on: SNB-78 CNS
KM20L2 colon = tested on: KM20L2 colon

| Compound | GI50 (A549 NSCLC) [µM] | TGI (A549 NSCLC) [µM] | GI50 (MDA-MB-435) [µM] | TGI (MDA-MB-435) [µM] | GI50 (NCI-H226 lung) [µM] | TGI (NCI-H226 lung) [µM] | GI50 (NCI-H23 lung) [µM] | TGI (NCI-H23 lung) [µM] | GI50 (PC-3 prostate) [µM] | TGI (PC-3 prostate) [µM] | GI50 (SF-539 CNS) [µM] | TGI (SF-539 CNS) [µM] | GI50 (SK-OV-3 ovarian) [µM] | TGI (SK-OV-3 ovarian) [µM] | GI50 (SN12C renal) [µM] | TGI (SN12C renal) [µM] | TGI (DLD-1 colon) [µM] | TGI (DMS 114 small cell lung) [µM] | TGI (SNB-78 CNS) [µM] | TGI (KM20L2 colon) [µM] |
| --- | --- | --- | --- | --- | --- | --- | --- | --- | --- | --- | --- | --- | --- | --- | --- | --- | --- | --- | --- | --- |
| N#Cc1c(-c2ccccc2)nc(SCC2CO2)nc1N1CCOCC1 (stereo not given) | 21 | > 100 | 9.56 | > 100 | 11.5 | > 100 | 8.51 | > 100 | 6.19 | > 100 | 10.6 | > 95.4 | 8.25 | 57.3 | 15.3 | > 100 |  |  |  |  |
| NCCNc1c2c(c(NCCN)c3c(CO)c[nH]c13)C(=O)c1ccccc1C2=O | > 100 | > 100 | 28.7 | > 100 | 17.9 | 91.6 | 17.2 | > 100 | 20.1 | > 100 | 3.89 | 39.3 | 5.96 | > 100 | 1.59 | 12.8 |  |  |  |  |
| O=C(Nc1ccccc1-c1n[nH]c(=S)[nH]c1=O)C(F)(F)F |  | > 100 |  |  |  | > 100 |  | > 100 |  |  |  | > 100 |  | > 100 |  | > 100 | > 100 | > 100 | > 100 |  |
| CCOC(=O)c1c2c(c(O)c3ccccc3c(O)n(Cc3ccc(OC)cc3)c1C)C(=O)C=CC2=O | > 100 | > 100 | > 100 | > 100 | 65.3 | > 100 | > 100 | > 100 | > 100 | > 100 | 84.6 | > 100 | > 100 | > 100 | > 100 | > 100 |  |  |  |  |
| C/C(=N\NC(=O)c1sc(=S)n(C)c1N)c1cc2ccccc2o1 | 7.68 | 20.2 | 8.65 | 32 | 18.7 | 40.4 | 17.7 | 58.8 | 9.73 | 32.7 | 12.9 | 25.9 | 20.9 | 55.6 | 17.6 | 55.6 |  |  |  |  |
| Cc1cn(Cc2ccccc2CCO)c(=S)[nH]c1=O |  | > 100 |  |  |  | > 100 |  | > 100 |  |  |  | > 100 |  | > 100 |  | > 100 |  | > 100 |  | > 100 |
| CC(C)(C)OC1=C(OC(C)(C)C)C(O)(c2ccccc2)C1=O (stereo not given) |  | > 100 |  |  |  |  |  | > 100 |  |  |  | > 100 |  | > 100 |  | > 100 | > 100 | > 100 | > 100 |  |
| CCCCC[C@H](O)/C=C/[C@@H]1[C@@H](C/C=C\CCCC(=O)O)[C@@H](O)C[C@H]1O | > 100 | > 100 | > 100 | > 100 | > 100 | > 100 | > 100 | > 100 | > 100 | > 100 | > 100 | > 100 | > 100 | > 100 | > 100 | > 100 |  |  |  |  |

Reference: PubChem BioAssay (NCI)
